Reference: ChEMBL document CHEMBL1125876, “Conformationally defined neurotransmitter analogues. Selective inhibition of glutamate uptake by one pyrrolidine-2,4-dicarboxylate diastereomer” (1991)

Tests used:
Parameters in all cases: scale not given: the % may be the effect or the level left
[1] = target: Glutamate receptor ionotropic, kainate 2 (Rattus norvegicus) (UniProt P42260); test: Compound tested for its ability to inhibit [3H]- KA binding to ionotropic glutamate receptor kainate at the concentration of 100 uM
Sequence of Glutamate receptor ionotropic, kainate 2 (Rattus norvegicus) (P42260 whole entry): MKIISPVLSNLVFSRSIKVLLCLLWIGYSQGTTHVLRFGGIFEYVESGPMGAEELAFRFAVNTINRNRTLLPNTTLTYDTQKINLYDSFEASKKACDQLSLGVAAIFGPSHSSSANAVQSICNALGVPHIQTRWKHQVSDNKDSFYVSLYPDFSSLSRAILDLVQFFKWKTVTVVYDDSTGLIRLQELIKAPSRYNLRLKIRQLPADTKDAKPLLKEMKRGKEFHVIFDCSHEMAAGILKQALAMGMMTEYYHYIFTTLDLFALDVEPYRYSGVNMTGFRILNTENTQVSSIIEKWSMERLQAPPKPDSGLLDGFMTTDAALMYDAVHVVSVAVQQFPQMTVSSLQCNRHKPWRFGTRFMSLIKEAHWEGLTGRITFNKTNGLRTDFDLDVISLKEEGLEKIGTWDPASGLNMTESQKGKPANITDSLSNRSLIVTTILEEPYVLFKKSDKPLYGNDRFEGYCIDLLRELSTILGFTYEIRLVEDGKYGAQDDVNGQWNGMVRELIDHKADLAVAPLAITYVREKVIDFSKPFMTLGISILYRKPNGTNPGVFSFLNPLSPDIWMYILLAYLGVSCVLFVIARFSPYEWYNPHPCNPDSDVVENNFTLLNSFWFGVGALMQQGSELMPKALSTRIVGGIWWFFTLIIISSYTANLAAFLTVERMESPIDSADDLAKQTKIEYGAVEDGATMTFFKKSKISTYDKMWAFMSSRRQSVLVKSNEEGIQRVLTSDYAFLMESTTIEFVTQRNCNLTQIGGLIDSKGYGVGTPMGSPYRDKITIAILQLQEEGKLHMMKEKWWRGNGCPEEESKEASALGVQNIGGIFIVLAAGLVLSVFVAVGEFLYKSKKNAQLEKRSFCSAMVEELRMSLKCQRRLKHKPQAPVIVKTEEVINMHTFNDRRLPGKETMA

[2] = target: T1, Glutamate NMDA receptor (Rattus norvegicus) (UniProt P35439+Q00959+Q00960+Q00961+Q62645+Q8VHN2+Q9R1M7); test: Compound tested for its ability to inhibit [3H]- -L-Glu binding to N-methyl-D-aspartate glutamate receptor at the concentration of 100 uM; assay type: protein-complex assay
[3] = target: T1, Glutamate NMDA receptor (Rattus norvegicus); test: Compound tested for its ability to inhibit [3H]- -L-Glu binding to N-methyl-D-aspartate glutamate receptor at the concentration of 20 uM; assay type: protein-complex assay
Rattus norvegicus = species on record: Rattus norvegicus; test: Comparative inhibition of L-Glutamate uptake at the concentration of 5 uM of [3H]-L- glutamate radioligand; assay type: functional

| Compound | Control [1] [%] | Control [2] [%] | Control [3] [%] | Control (Rattus norvegicus) [%] |
| --- | --- | --- | --- | --- |
| O=C(O)[C@@H]1CN[C@H](C(=O)O)C1 | 100 | 89 | – | – |
| O=C(O)[C@@H]1CN[C@@H](C(=O)O)C1 | 92 | 95 | – | – |
| O=C(O)[C@H]1CN[C@@H](C(=O)O)C1 | 101 | 38 | 76 | – |
| O=C(O)[C@H]1CN[C@H](C(=O)O)C1 | 102 | 87 | – | 45 |
| CC(C)[C@H]1CN[C@H](C(=O)O)[C@H]1CC(=O)O [DIHYDROKAINATE] | – | – | – | 93 |
| N[C@H](CC(=O)O)C(=O)O [D-ASPARTATE] | – | – | – | 58 |
